Patent US20190119282A1, “IMIDAZOPYRIDAZINES USEFUL AS INHIBITORS OF THE PAR-2 SIGNALING PATHWAY” (Vertex Pharmaceuticals Incorporated, priority 2013, published 2019)
pIC50: −log10 of the molar value. Marks after values point to notes of the source that are not given here.

Experiments:
[1] = system: carrageenan-induced paw edema; experiment: Rat carrageenan-induced paw edema model; type: in vivo, Sprague Dawley rats; conditions: for % inhibition of an established carrageenan induced rat paw edema: given 2 hours post carrageenan challenge; for % inhibition of carrageenan induced paw edema: given before carrageenan challenge
Procedure: (§1) Male Sprague Dawley rats and BALB/c mice were housed in groups in a temperature controlled room and were acclimatized in the animal facility for at least three days prior to use. Experiments were performed during the light phase of the cycle. Animals have food and water ad libitum.
Example 63: Rat Carrageenan-Induced Paw Edema Model
Peripheral inflammation was induced by intra-plantar administration of 100 ul of a 1% w/volume (in saline) carrageenan solution under isoflurane anesthesia. The degree of swelling was assessed using the plethysmometer at 2-3-4-5-6 h after carrageenan injection. Test compound or vehicle (0.5% MC/0.1% SDS) was systemically administered at the indicated doses in a volume of 5 mL/kg either I-3 hour before carrageenan challenge (Table 9) or 2 hours post carrageenan challenge (Table 10).
(§2) Data are expressed as the mean % effect. Statistical significance was assessed using t-test for comparison between naive and inflamed rats, and one-way ANOVA followed by post-hoc comparison test for overall drug effectiveness. A difference between groups is considered significant with a p value of <0.05. *, p<0.05; **, p<0.01; ***, p<0.001 vs. vehicle.

[2] = system: UTP-stimulated Ca2+ response in HT-29 cells; experiment: Ca FLIPR TETRA assay, ANTAGONIST mode, stimulation with 0.6 μM UTP; type: cell-based, human; conditions: Homo sapiens; HT-29 cells, antagonist mode, stimulation with 0.6 μM UTP
Procedure, shortened: (§3)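 HT-29 cells in 1% FBS/McCoy's overnight, loaded with Calcium 5 dye; compounds added and read first for intrinsic Ca2+ activation, then incubated 30 min at r.t. Antagonism read on FLIPR Tetra after stimulation with final 8 μM SLIGKV, 3.1 U/mL trypsin, 1 U/mL thrombin or 0.6 μM UTP.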

TNBS-induced colitis = experiment: Mouse TNBS-induced colitis model; type: in vivo, BALB/c mice; conditions: mice
Procedure: as §1
Example 65: Mouse TNBS-Induced Colitis Model
Colitis was induced by intra-colonic administration of 1.5 mg of TNBS in 75 μl of 40% v/volume ethanol solution under isoflurane anesthesia at a depth of 4 cm from the anal verge. Mice were kept with their heads down for 30 additional seconds post administration to ensure distribution of TNBS. Disease activity scores were assessed for a period of 5 days starting prior to TNBS injection (baseline reading). […] Test compounds or vehicle (0.5% MC/0.1% SDS) were systemically administered at the indicated doses in a volume of 10 mL/kg each day for 5 days and starting 1 day before TNBS.
as §2

[3] = In vivo rat pharmacokinetics (intravenous and oral); conditions: plasma; for clearance: intravenous 0.5 to 1 mg/kg, read-out: Clp; for Vd: intravenous, read-out: Vss; for bioavailability: oral by gavage; for half-life: read-out: T ½ (converted)
Procedure: Example 61: Protocol for Testing PAR2 Compounds In Vivo Rat Pharmacokinetics Experiments
Compounds delivered by intravenous route were formulated using a solution formulation consisting of 5% N-methylpyrrolidone 10% Vitamin E-TPGS and 85% water (v/v/) or a solution formulation consisting of 25% N-methylpyrrolidone 35% polyethylene glycol 400 and 40% water (v/v/). Intravenous formulations were administered by a bolus injection (over approximately 10 seconds) using a hypodermic needle attaches to a syringe (tail vein). The dose volume was varied from 1 to 2 mL/kg and the dose was varied from 0.5 to 1 mg/kg. Compounds delivered orally were formulated as a solution formulation consisting of 5% N-methylpyrrolidone 10% Vitamin E-TPGS and 85% water (v/v/) or as fine suspension using a cellulose derivative suspending agent with or without the addition of a wetting agent/surfactant. Milling of large particles was performed as needed to reduce particle size using focused electroacoustic milling, homogenization or low energy media milling. A spray-dried solid dispersion was prepared for key compounds using 1:1 combination with cellulose derivatives. Test compounds were administered orally by gavage using a gavage plastic needle attached to a syringe. The dose volume was varied from 5 to 10 mL/kg and the dose was varied from 1 to 600 mg/kg.
Rats were bled by venipuncture (jugular vein) and the samples were collected into tubes containing K3EDTA. The tubes were placed on wet ice until processed. The samples were centrifuged for approximately 10 minutes (at approximately 4° C.) within approximately 30 minutes of collection to prepare plasma or diluted in citrate buffer (1:3) and stored frozen (approximately −30° C.). Thawed plasma or whole blood samples were extracted by protein precipitation using an organic solvent followed by centrifugation. The supernatants were separated by high-performance liquid chromatography coupled to mass spectrometry detection. A calibration curve was prepared using reference standard compounds spiked into either blank plasma or whole blood matrices and extracted similarly to unknown samples. Pharmacokinetic parameters were calculated using non-compartmental analysis.

[4] = system: tryptase-induced mechanical hypersensitivity; experiment: Rat tryptase-induced mechanical hypersensitivity model; type: in vivo, Sprague Dawley rats; conditions: for % inhibition of tryptase-induced nociception: given 3-18 h before the tryptase challenge; for % inhibition of an established tryptase-induced nociception: given 30 minutes post tryptase challenge
Procedure: as §1
Example 64: Rat Tryptase-Induced Mechanical Hypersensitivity Model
Peripheral sensitization was induced by intra-dermal administration of 500 ng of tryptase in a volume of 10 ul PBS under isoflurane anesthesia. Rats were then placed on a wire mesh grid in separate compartments and allowed to acclimatize before testing. Mechanical hypersensitivity was assessed 30 min after tryptase injection using calibrated von Frey filaments applied perpendicular to the plantar surface of the affected paw using the up-and-down method. Test compounds or vehicle (0.5% MC/0.1% SDS) were systemically administered at doses indicated in a volume of 5 mL/kg 3-18 h before the tryptase challenge (Table 11) or 30 minutes post tryptase challenge (Table 12).
as §2

[5] = system: Thrombin-stimulated Ca2+ response in HT-29 cells; experiment: Ca FLIPR TETRA assay, ANTAGONIST mode, stimulation with 1 U/mL Thrombin; type: cell-based, human; conditions: Homo sapiens; HT-29 cells, antagonist mode, stimulation with 1 U/mL Thrombin
Procedure, shortened: as §3

[6] = target: T1, PAR2 (HT-29 cells, SLIGKV activation) (Homo sapiens, UniProt P55085); experiment: Ca FLIPR TETRA assay, ANTAGONIST mode, stimulation with 8 μM SLIGKV; type: cell-based; conditions: HT-29 cells, antagonist mode, stimulation with 8 μM SLIGKV
T1 construct: host or cells: HT-29 cells
T1 sequence (P55085 26-397): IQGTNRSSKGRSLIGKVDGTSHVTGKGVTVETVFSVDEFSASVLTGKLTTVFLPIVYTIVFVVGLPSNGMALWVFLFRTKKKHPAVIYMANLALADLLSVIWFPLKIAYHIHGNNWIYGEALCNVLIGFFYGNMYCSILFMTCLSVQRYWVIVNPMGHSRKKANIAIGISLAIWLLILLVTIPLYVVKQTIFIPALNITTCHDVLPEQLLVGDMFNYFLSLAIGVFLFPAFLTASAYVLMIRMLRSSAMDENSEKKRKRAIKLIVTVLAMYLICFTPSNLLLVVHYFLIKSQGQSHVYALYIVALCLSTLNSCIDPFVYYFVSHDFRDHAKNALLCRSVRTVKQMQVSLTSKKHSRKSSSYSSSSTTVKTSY
Procedure, shortened: as §3

[7] = target: T2, PAR2 (HT-29 cells, trypsin activation) (Homo sapiens, UniProt P55085); experiment: Ca FLIPR TETRA assay, ANTAGONIST mode, stimulation with 3.1 U/mL trypsin; type: cell-based; conditions: HT-29 cells, antagonist mode, stimulation with 3.1 U/mL trypsin
T2 construct: host or cells: HT-29 cells
T2 sequence (P55085 26-397): T1 sequence (P55085 26-397)
Procedure, shortened: as §3

| pIC50 [2] | clearance [3] [mL/min/kg] | Vd [3] [L/kg] | bioavailability [3] [%] | half-life [3] [h] | pIC50 [5] | pIC50 [6] | pIC50 [7] | Structure (SMILES) | % inhibition of carrageenan induced paw edema ([1]; dose 20 mg/kg) | further results |
| --- | --- | --- | --- | --- | --- | --- | --- | --- | --- | --- |
| 6.36 | 0.7 | 3.2 | 66 | 56.9 | 6.49 | 8.85 | 8.64 | CC(C)(C)c1cc(-c2ccc(F)cc2)nn2cc(C(=O)N3CCNC(=O)C3(C)C)nc12 [Compound I-191, 4-(8-(tert-butyl)-6-(4-fluorophenyl)imidazo[1,2-b]pyridazine-2-carbonyl)-3,3-dimethylpiperazin-2-one] | – | % inhibition of an established carrageenan induced rat paw edema ([1]; dose 0.6 mg/kg): 26%; % inhibition of an established carrageenan induced rat paw edema ([1]; dose 2 mg/kg): 40* %; % inhibition of an established carrageenan induced rat paw edema ([1]; dose 3 mg/kg): 46*** %; % inhibition of an established carrageenan induced rat paw edema ([1]; dose 6 mg/kg): 48* %; % inhibition of an established carrageenan induced rat paw edema ([1]; dose 10 mg/kg): 50*** %; % inhibition of an established carrageenan induced rat paw edema ([1]; dose 30 mg/kg): 57*** %; % improvement in Disease activity scores (TNBS-induced colitis; dose 15 mg/kg each day for 5 days starting 1 day before TNBS): 21** %; % improvement in Disease activity scores (TNBS-induced colitis; dose 50 mg/kg each day for 5 days starting 1 day before TNBS): 36*** %; % inhibition of tryptase-induced nociception ([4]; dose 1 mg/kg): 26%; % inhibition of tryptase-induced nociception ([4]; dose 3 mg/kg): 36%; % inhibition of tryptase-induced nociception ([4]; dose 10 mg/kg): 40** % |
| 6.25 | 10.9 | 3.3 | 55 | 4.3 | 6.43 | 9.15 | 9.05 | CC(C)(C)c1cc(-c2ccc(F)cc2)nn2cc(C(=O)N3CCN(C(=O)c4ccn[nH]4)CC3(C)C)nc12 [Compound I-201] | 60*** % | % inhibition of carrageenan induced paw edema ([1]; dose 5 mg/kg): 55** %; % inhibition of tryptase-induced nociception ([4]; dose 5 mg/kg): 52** %; % inhibition of tryptase-induced nociception ([4]; dose 15 mg/kg): 65*** % |
| 5.44 | 4.8 | 1.6 | 70 | 5.1 | 5.43 | 8.12 | 7.99 | Cc1cc(-c2cc(C(C)C)c3nc(C(=O)N4CCNC(=O)C4(C)C)cn3n2)ccc1F [Compound I-244, 4-[6-(4-fluoro-3-methyl-phenyl)-8-isopropyl-imidazo[1,2-b]pyridazine-2-carbonyl]-3,3-dimethyl-piperazin-2-one] | 67*** % | % inhibition of carrageenan induced paw edema ([1]; dose 2 mg/kg): 42** %; % inhibition of carrageenan induced paw edema ([1]; dose 6 mg/kg): 51** %; % inhibition of an established tryptase-induced nociception ([4]; dose 2 mg/kg): 21* %; % inhibition of an established tryptase-induced nociception ([4]; dose 6 mg/kg): 43* %; % inhibition of an established tryptase-induced nociception ([4]; dose 20 mg/kg): 48* % |
| 5.44 | 4.21 | 2.05 | 77 | 7.5 | 4.96 | 9.52 | 9.40 | Cc1nc(C(=O)N2CCN(C(=O)c3cn4nc(-c5ccc(Cl)cc5)cc(C(C)(C)C)c4n3)C(C)(C)C2)n[nH]1 [Compound I-436, [8-tert-butyl-6-(4-chlorophenyl)imidazo[1,2-b]pyridazin-2-yl]-[2,2-dimethyl-4-(5-methyl-1H-1,2,4-triazole-3-carbonyl)piperazin-1-yl]methanone] | – | % inhibition of carrageenan induced paw edema ([1]; dose 1 mg/kg): −17* %; % inhibition of carrageenan induced paw edema ([1]; dose 30 mg/kg): 36** % |
| 4.84 | 6.44 | 1.84 | 87 | 5.14 | 4.76 | 8.16 | 7.94 | Cc1nnc(C(=O)N2CCN(C(=O)c3cn4nc(C5CCC(F)(F)CC5)cc(C(C)(C)C)c4n3)C(C)(C)C2)[nH]1 [Compound I-448, [8-tert-butyl-6-(4,4-difluorocyclohexyl)imidazo[1,2-b]pyridazin-2-yl]-[2,2-dimethyl-4-(5-methyl-4H-1,2,4-triazole-3-carbonyl)piperazin-1-yl]methanone] | 15% | – |
